{"source": "patent US20250270180A1", "about": "“MEK INHIBITORS AND THERAPEUTIC USES THEREOF” (Immuneering Corporation, priority 2020, published 2025)", "key": {"A549 (KRAS-G12S) pERK": {"system": "A549 (KRAS-G12S) pERK", "experiment": "Cell-based pERK dose response study, A549", "description": "(§1) Materials and Methods: A549 or A375 cells were seeded in 6-well plates at an appropriate seeding density on day 0. On day 2 or 3, after checking the health and confluency of cells, the media was aspirated and replaced with 1 mL media containing a predetermined concentration of compound and incubated for 2 hours. After 2 hours, the media was aspirated, and the cells washed 2 times with cold PBS. Cells were lysed on ice, with 50 uL 1×CST lysis buffer+1 mM PMSF for 5 minutes. After 5 minutes, cells were removed using a scraper and transferred to cold 1.5 mL tubes, and centrifuged for 10 min, 4° C., 14,000×g. Supernatant was gently removed and snap frozen in liquid nitrogen. Protein concentration of the lysate was determined using Bradford Reagent (analyzed using SpectraMax M2E) and diluted to 1 mg/mL or pERK or 1.5 mg/mL for pMEK analysis. […] All dilutions were in Milk-free antibody diluent."}, "A375 pERK:tERK": {"system": "A375 pERK:tERK", "experiment": "Cell-based pERK:tERK, A375", "description": "as §1"}, "[1]": {"experiment": "Human liver microsome stability (t1/2, Clint)", "assay_type": "in vitro ADME", "settings": "microsomes, pH 7.4, 0.5 mg/ml microsomal protein"}, "[2]": {"experiment": "Metabolite ID study, mouse hepatocytes", "assay_type": "in vitro ADME", "settings": "10 uM compound 9, T=60 min", "description": "(§2) Animal Studies: Compound 9 was tested using six species hepatocytes in a metabolite ID study (T=60 min).\n(§3) Cryopreserved hepatocytes from a selected species were thawed and incubated in duplicate with 10 uM compound 9 in Krebs-Henseleit buffer. […] Viability of hepatocytes was >70% after thawing.\n(§4) (Eppendorf 5804R). […] The disappearance of the parent compound was determined, and the formation of metabolites was evaluated. Metabolites present at >1% of total compound related material (based on peak area) were identified by interpretation of the LC-MS/MS data.\n(§5) MS settings were optimized for the flow rate. Full scan spectra were acquired in combination with data dependent MS2.\n(§6) The spectra obtained from all samples were screened for the presence of m/z values that are absent in the blank incubations (incubations with hepatocytes without compound and with vehicle control, and incubations of compound in buffer without hepatocytes). T=60 min incubations were used as an initial screening. All possible metabolites observed were semi-quantified by MS response (peak area). MS2 spectra were interpreted to determine possible location of the metabolism reaction. The presence of metabolites identified was compared across the selected species."}, "[3]": {"experiment": "Metabolite ID study, rat hepatocytes", "assay_type": "in vitro ADME", "settings": "10 uM compound 9, T=60 min", "description": "as §2, §3, §4, §5, §6"}, "[4]": {"experiment": "Metabolite ID study, rabbit hepatocytes", "assay_type": "in vitro ADME", "settings": "10 uM compound 9, T=60 min", "description": "as §2, §3, §4, §5, §6"}, "[5]": {"experiment": "Metabolite ID study, dog hepatocytes", "assay_type": "in vitro ADME", "settings": "10 uM compound 9, T=60 min", "description": "as §2, §3, §4, §5, §6"}, "[6]": {"experiment": "Metabolite ID study, human hepatocytes", "assay_type": "in vitro ADME", "settings": "10 uM compound 9, T=60 min", "description": "as §2, §3, §4, §5, §6"}, "[7]": {"experiment": "Metabolite ID study, six species hepatocytes", "assay_type": "in vitro ADME", "settings": "hepatocyte incubations, T=60 min", "description": "as §2, §3, §4, §6\nPrimary metabolite shown for each species in bold font. Several masses found were also present in incubations with compound in buffer and were considered not to be metabolites."}, "[8]": {"experiment": "Single dose PK profile (plasma and tumor) in Colon26 tumor bearing mice", "assay_type": "in vivo", "settings": "female, mouse", "description": "Female mice (either athymic BALC/c nude, or BALB/c mice) were inoculated with a single subcutaneous injection of 0.1 ml of mouse Colon-26 cell suspension (1×10^5 cells per animal) in the right flank region. Colon26 (C26) tumor bearing mice received a single dose (3-4 mice/treatment) of vehicle (10% DMSO/90% [20% SBE-B-CD in saline], pH 5) containing compounds at indicated dose by gavage (p.o.) or intravenous administration (i.v.) and at various time points (0.16, 0.5, 1, 2, 4, 8, 12, 16, 24-hour) post dose humanely euthanized. Blood was obtained through cardiac puncture into K+EDTA tubes, mixed by inversion and centrifuged to obtain the plasma. Tissues were excised, cleaned of surrounding tissues. All samples immediately snap frozen in liquid N2 prior to LC-MS/MS analysis (using Agilent Poroshell-120 EC-C18 (4.0 μm) 2.1×50 mm, and a Water+API-4000 Electrospray MS unit). The results of this study are illustrated in FIGS. 16, and 17. Tables 11 describes a single does PK profile (plasma) and Table 12 describes a single dose PK profile (tumor)."}, "[9]": {"settings": "athymic BALB/c nude or BALB/c, iv, 25 mg/kg, plasma, 25 mpk i.v."}, "[10]": {"settings": "athymic BALB/c nude or BALB/c, po, 25 mg/kg, plasma, 25 mpk p.o."}, "[11]": {"settings": "athymic BALB/c nude or BALB/c, po, 100 mg/kg, plasma, 100 mpk p.o."}, "[12]": {"settings": "iv, 25 mg/kg, plasma, 25 mpk i.v."}, "[13]": {"settings": "iv, 25 mg/kg, tumor, 25 mpk i.v."}, "[14]": {"settings": "po, 25 mg/kg, plasma, 25 mpk p.o."}, "[15]": {"settings": "po, 25 mg/kg, tumor, 25 mpk p.o."}, "[16]": {"settings": "po, 100 mg/kg, plasma, 100 mpk p.o."}, "[17]": {"settings": "po, 100 mg/kg, tumor, 100 mpk p.o."}}, "data": [{"smiles": "CNS(=O)(=O)Nc1cccc(Cc2c(CN(C)C)c3ccc(OC(=O)N(C)C)cc3oc2=O)c1F", "note": "[Compound 9]", "values": [{"measurement": "A549 pERK:tERK ratio [10 nM; 2 hr]", "setting": "A549 (KRAS-G12S) pERK; 10 nM, 2 hr", "result": 0.62}, {"measurement": "IC50", "setting": "A549 (KRAS-G12S) pERK; Homo sapiens, A549, 12-point dose, 2 hours", "result": 19.8, "unit": "nM"}, {"measurement": "A375 pERK:tERK ratio [10 nM; 2 hr]", "setting": "A375 pERK:tERK", "result": 0.71}, {"measurement": "half-life at 1 uM", "setting": "[1]", "result": 35, "unit": "min"}, {"measurement": "microsomal CLint at 1 uM", "setting": "[1]", "result": 40, "unit": "µL/min/mg"}, {"measurement": "% of total compound related material based on peak area, Mouse", "setting": "[2]", "result": 97, "unit": "%"}, {"measurement": "% of total compound related material based on peak area, Rat", "setting": "[3]", "result": 95, "unit": "%"}, {"measurement": "% of total compound related material based on peak area, Rabbit", "setting": "[4]", "result": 93, "unit": "%"}, {"measurement": "% of total compound related material based on peak area, Dog", "setting": "[5]", "result": 96, "unit": "%"}, {"measurement": "% of total compound related material based on peak area, Human", "setting": "[6]", "result": 99, "unit": "%"}, {"measurement": "extent of metabolism in hepatocytes from different species", "setting": "[7]", "result": "not extensively metabolized"}, {"measurement": "Tmax", "setting": "[8]; [9]", "result": 30, "unit": "min"}, {"measurement": "half-life", "setting": "[8]; [9]", "result": 37.8, "unit": "min"}, {"measurement": "bioavailability", "setting": "[8]; [10]", "result": 75.6, "unit": "%"}, {"measurement": "half-life", "setting": "[8]; [10]", "result": 79.2, "unit": "min"}, {"measurement": "bioavailability", "setting": "[8]; [11]", "result": 192, "unit": "%"}, {"measurement": "half-life", "setting": "[8]; [11]", "result": 73.2, "unit": "min"}, {"measurement": "AUC(0-inf)", "setting": "[8]; [12]", "result": 5810, "unit": "ng·h/mL"}, {"measurement": "AUC(0-t)", "setting": "[8]; [12]", "result": 5810, "unit": "ng·h/mL"}, {"measurement": "Cmax", "setting": "[8]; [12]", "result": 6520, "unit": "ng/mL"}, {"measurement": "AUC(0-inf)", "setting": "[8]; [13]", "result": 8290, "unit": "ng·h/mL"}, {"measurement": "AUC(0-t)", "setting": "[8]; [13]", "result": 8280, "unit": "ng·h/mL"}, {"measurement": "Cmax", "setting": "[8]; [13]", "result": 7790, "unit": "ng/mL"}, {"measurement": "Tmax", "setting": "[8]; [13]", "result": 30, "unit": "min"}, {"measurement": "half-life", "setting": "[8]; [13]", "result": 208, "unit": "min"}, {"measurement": "AUC(0-inf)", "setting": "[8]; [14]", "result": 4400, "unit": "ng·h/mL"}, {"measurement": "AUC(0-t)", "setting": "[8]; [14]", "result": 4390, "unit": "ng·h/mL"}, {"measurement": "Cmax", "setting": "[8]; [14]", "result": 4640, "unit": "ng/mL"}, {"measurement": "Tmax", "setting": "[8]; [14]", "result": 30, "unit": "min"}, {"measurement": "AUC(0-inf)", "setting": "[8]; [15]", "result": 4900, "unit": "ng·h/mL"}, {"measurement": "AUC(0-t)", "setting": "[8]; [15]", "result": 4890, "unit": "ng·h/mL"}, {"measurement": "Cmax", "setting": "[8]; [15]", "result": 4580, "unit": "ng/mL"}, {"measurement": "Tmax", "setting": "[8]; [15]", "result": 30, "unit": "min"}, {"measurement": "bioavailability", "setting": "[8]; [15]", "result": 59.1, "unit": "%"}, {"measurement": "half-life", "setting": "[8]; [15]", "result": 76.8, "unit": "min"}, {"measurement": "AUC(0-inf)", "setting": "[8]; [16]", "result": 44600, "unit": "ng·h/mL"}, {"measurement": "AUC(0-t)", "setting": "[8]; [16]", "result": 44500, "unit": "ng·h/mL"}, {"measurement": "Cmax", "setting": "[8]; [16]", "result": 30100, "unit": "ng/mL"}, {"measurement": "Tmax", "setting": "[8]; [16]", "result": 30, "unit": "min"}, {"measurement": "AUC(0-inf)", "setting": "[8]; [17]", "result": 51700, "unit": "ng·h/mL"}, {"measurement": "AUC(0-t)", "setting": "[8]; [17]", "result": 51700, "unit": "ng·h/mL"}, {"measurement": "Cmax", "setting": "[8]; [17]", "result": 30300, "unit": "ng/mL"}, {"measurement": "Tmax", "setting": "[8]; [17]", "result": 30, "unit": "min"}, {"measurement": "bioavailability", "setting": "[8]; [17]", "result": 156, "unit": "%"}, {"measurement": "half-life", "setting": "[8]; [17]", "result": 118, "unit": "min"}]}]}
